From patent US20140363830A1, “COMPOUNDS THAT MODULATE HSP90 ACTIVITY AND METHODS FOR IDENTIFYING SAME” (SYNTA PHARMACEUTICALS CORP., priority 2006, published 2014)

Legend:
Her2 = assay: Degradation of Her2 in BT-474 cells (Western blot); type: cell-based, Human; conditions: for Her2 degradation: overnight
Method: Human high-Her2 breast carcinoma BT474 (HTB-20), SK-BR-3 (HTB-30) and MCF-7 breast carcinoma (HTB-22) from American Type Culture Collection, VA, USA were grown in Dulbecco's modified Eagle's medium with 4 mM L-glutamine and antibiotics (100 IU/ml penicillin and 100 ug/ml streptomycine; GibcoBRL). To obtain exponential cell growth, cells were trypsinized, counted and seeded at a cell density of 0.5×10^6 cells/ml regularly, every 3 days. All experiments were performed on day 1 after cell passage.
After treatment, each cytoplasmic sample was prepared from 1×10^6 cells by incubation of cell lysis buffer (#9803, cell Signaling Technology) on ice for 10 minutes. The resulting supernatant used as the cytosol fractions were dissolved with sample buffer for SDS-PAGE and run on a SDS-PAGE gel, blotted onto a nitrocellulose membrane by using semi-dry transfer. Non-specific binding to nitrocellulose was blocked with 5% skim milk in TBS with 0.5% Tween at room temperature for 1 hour, then probed with anti-Her2/ErB2 mAb (rabbit IgG, #2242, Cell Signaling) and anti-Tubulin (T9026, Sigma) as housekeeping control protein. HRP-conjugated goat antirabbit IgG (H+L) and HRP-conjugated horse antimouse IgG (H+L) were used as secondary Ab (#7074, #7076, Cell Signaling) and LumiGLO reagent, 20× Peroxide (#7003, Cell Signaling) was used for visualization.

Hsp90 protein = assay: Malachite Green assay of ATPase activity of Hsp90 protein; type: biochemical; conditions: 37° C., 4 hours
Method: Hsp90 protein was obtained from Stressgen (Cat#SPP-770). Assay buffer: 100 mM Tris-HCl, Ph7.4, 20 mM KCl, 6 mM MgCl2. […] Malachite green reagent was added to the reaction. […] The plate was read by an ELISA reader with an absorbance at 620 nm.

[1] = test system: human tumor cell line MDA-MB-435S; assay: MDA-MB-435S nude mouse xenograft model; type: in vivo; conditions: 300 mg/kg body weight IP, 5 days per week for 3 weeks
Method: (§1) FBS was obtained from Sigma-Aldrich Corp. (St. Louis, Mo., USA), and all other reagents were obtained from Invitrogen Corp. (Carlsbad, Calif., USA). Approximately 4-5×10(6) cells that had been cryopreserved in liquid nitrogen were rapidly thawed at 37° C. and transferred to a 175 cm^2 tissue culture flask containing 50 ml of growth media and then incubated at 37° C. in a 5% CO2 incubator. The growth media was replaced every 2-3 days until the flask became 90% confluent, typically in 5-7 days. To passage and expand the cell line, a 90% confluent flask was washed with 10 ml of room temperature phosphate buffered saline (PBS) and the cells were disassociated by adding 5 ml 1× Trypsin-EDTA (Invitrogen) and incubating at 37° C. until the cells detached from the surface of the flask. To inactivate the trypsin, 5 ml of growth media was added and then the contents of the flask were centrifuged to pellet the cells. The supernatant was aspirated and the cell pellet was resuspended in 10 ml of growth media and the cell number determined using a hemocytometer. Approximately 1-3×10(6) cells per flask were seeded into 175 cm^2 flasks containing 50 ml of growth media and incubated at 37° C. in a 5% CO2 incubator. When the flasks reached 90% confluence, the above passaging process was repeated until sufficient cells had been obtained for implantation into mice.
Six to eight week old, female Crl:CD-1-nuBR (nude) mice were obtained from Charles River Laboratories (Wilmington, Mass., USA) Animals were housed 4-5/cage in micro-isolators, with a 12 hr/12 hr light/dark cycle, acclimated for at least 1 week prior to use and fed normal laboratory chow ad libitum. Studies were conducted on animals between 7 and 12 weeks of age at implantation. […] Tumor volumes (V) were calculated by caliper measurement of the width (W), length (L) and thickness (T) of tumors using the following formula: V=[…]×(L×W×T) Animals were randomized into treatment groups so that the average tumor volumes of each group were similar at the start of dosing. […]

c-kit [2] = assay: FACS-based c-kit degradation assay in HEL92.1.7 cells; type: cell-based; conditions: about 18 h
Method: (§2) Two leukemia cell lines, HEL92.1.7 and Kasumi-1, were used for testing c-kit degradation induced by Hsp90 inhibitors of the invention. […] The cells were collected and centrifuged (SORVALL RT 6000D) at 1200 rpm for 5 min. The supernatants were discarded, and the cells were washed one time with 1×PBS. After centrifugation the cells were stained with FITC conjugated c-kit antibody (MBL International, Cat #K0105-4) in 100 ml 1×PBS at 4° C. for 1 h. The samples were read and analysized with FACSCalibur flow cytometer (Becton Dicknson).

c-kit [3] = assay: Western blot analysis of c-Kit in Kasumi-1 cells; type: cell-based
Text: The results of the FACS analysis were confirmed with Western blot analysis (see FIG. 5). […] In contrast, 17-AAG had no effect of c-Kit protein levels.

c-kit [4] = assay: FACS-based c-kit degradation assay in Kasumi-1 cells; type: cell-based; conditions: about 18 h
Method: as §2

[5] = test system: RERF-LC-AI^IVP human lung tumor cells; assay: RERF-LC-AI^IVP nude mouse xenograft model; type: in vivo
Method: The human squamous non-small cell lung cancer cell line, RERF-LC-AI (RCB0444; S. Kyoizumi, et al., Cancer. Res. 45:3274-3281, 1985), was obtained from the Riken Cell Bank (Tsukuba, Ibaraki, Japan). […] FBS was obtained from American Type Culture Collection (Manassas, Va., USA) and all other reagents were obtained from Invitrogen Corp. (Carlsbad, Calif., USA). Approximately 4-5×10(6) cells that had been cryopreserved in liquid nitrogen were rapidly thawed at 37° C. and transferred to a 175 cm^2 tissue culture flask containing 50 ml of growth media and then incubated at 37° C. in a 5% CO2 incubator.
as §1, with “The” for “FBS was obtained from Sigma-Aldrich Corp. (St. Louis, Mo., USA), and all other reagents were obtained from Invitrogen Corp. (Carlsbad, Calif., USA). Approximately 4-5×10(6) cells that had been cryopreserved in liquid nitrogen were rapidly thawed at 37° C. and transferred to a 175 cm^2 tissue culture flask containing 50 ml of growth media and then incubated at 37° C. in a 5% CO2 incubator. The”, “trypsin-EDTA” for “Trypsin-EDTA”, “1−3×10(6)” for “1-3×10(6)”
Seven to eight week old, female Crl:CD-1-nuBR (nude) mice were obtained from Charles River Laboratories (Wilmington, Mass., USA) Animals were housed 4-5/cage in micro-isolators, with a 12 hr/12 hr light/dark cycle, acclimated for at least 1 week prior to use and fed normal laboratory chow ad libitum. Studies were conducted on animals between 8 and 12 weeks of age at implantation. […] Using a 27 gauge needle and 1 cc syringe, 0.1 ml of the cell suspension was injected subcutaneously into the flank of each nude mouse. Tumor volumes (V) were calculated by caliper measurement of the width (W), length (L) and thickness (T) of tumors using the following formula: V=0.5236×(L×W×T).
In vivo passaged RERF-LC-AI tumor cells (RERF-LC-AI^IVP) were isolated to improve the rate of tumor implantation relative to the parental cell line in nude mice. RERF-LC-AI tumors were permitted to develop in vivo until they reached approximately 250 mm^3 in volume, which required approximately 3 weeks following implantation. Mice were euthanized via CO2 asphyxiation and their exteriors sterilized with 70% ethanol in a laminar flow hood. Using sterile technique, tumors were excised and diced in 50 ml PBS using a scalpel blade. A single cell suspension was prepared using a 55 ml Wheaton Safe-Grind tissue grinder (catalog #62400-358; VWR International, West Chester, Pa., USA) by plunging the pestle up and down 4-5 times without twisting. The suspension was strained through a […] nylon cell strainer and then centrifuged to pellet the cells. The resulting pellet was resuspended in 0.1 M NH4Cl to lyse contaminating red blood cells and then immediately centrifuged to pellet the cells. The cell pellet was resuspended in growth media and seeded into 175 cm^2 flasks containing 50 ml of growth media at 1-3 tumors/flask or approximately 10×10(6) cells/flask. […]

[6] = 200 mg/kg body weight i.p., 5 days per week, 15 doses

Row | SMILES | Her2 degradation (Her2; 0.5 μM) | Her2 degradation (Her2; 2 μM) | Her2 degradation (Her2; 5 μM) | c-kit degradation (c-kit [2]; 0.5 μM) | c-kit degradation (c-kit [4]; 0.5 μM) | c-kit degradation (c-kit [2]; 0.05 μM) | c-kit degradation (c-kit [4]; 0.05 μM) | further results
1 | Oc1ccc(-c2nnc(S)n2-c2cccc3ccccc23)c(O)c1 [Compound 108, 3-(2,4-Dihydroxy-phenyl)-4-(naphthalen-1-yl)-5-mercapto-[1,2,4]triazole] | partially degradated | partially degradated | almost completely degraded | – | – | – | – | ATPase activity of Hsp90 (Hsp90 protein; 4 μM): significant inhibition; ATPase activity of Hsp90 (Hsp90 protein; 40 μM): even greater inhibition of ATPase activity of Hsp90 than geldanamycin
2 | CCc1cc(-c2nnc(S)n2-c2cccc3ccccc23)c(O)cc1O [Compound 49, 3-(2,4-Dihydroxy-5-ethyl-phenyl)-4-(naphthalen-1-yl)-5-mercapto-[1,2,4]triazole] | partial degradated | complete degradation | complete degradation | – | – | – | – | Activity in Her2 degradation relative to Compound 108 (Her2): even more active than Compound 108; effect on body weights [1]: lack of an effect on body weights; toxicity [1]: not associated with significant toxicity; growth rate of MDA-MB-435S cells in nude mice ([1]; compared with 100 mg/kg 17-AAG): decreased the growth rate of MDA-MB-435S cells in nude mice to a greater extent than did a dose of 100 mg/kg body weight of the Hsp90 inhibitor 17-AAG
3 | C=CCNC1=C2C[C@@H](C)C[C@H](OC)[C@H](O)[C@@H](C)/C=C(\C)[C@H](OC(N)=O)[C@@H](OC)/C=C\C=C(/C)C(=O)NC(=CC1=O)C2=O [Compound 17-AAG, 17-allylamino-17-demethoxygeldanamycin, reference compound] | – | – | – | could not induce c-kit degradation | could not induce c-kit degradation | – | – | c-Kit protein levels (Western blot) (c-kit [3]; concentration not given): had no effect; growth rate of RERF-LC-AI^IVP human lung tumor cells in nude mice ([5]; 75 mg/kg body weight i.p., 5 days per week, 15 doses): decreased the growth rate; maximum tolerated dose in nude mice ([5]; i.p., 5 times per week): ~75 mg/kg body weight
4 | CCc1cc(-c2nnc(S)n2-c2ccc(OC)c3c2ccn3C(C)C)c(O)cc1O [Compound 188, 3-(2,4-Dihydroxy-5-ethyl-phenyl)-4-(1-isopropyl-7-methoxy-indol-4-yl)-5-mercapto-[1,2,4]triazole] | – | – | – | induced c-kit degradation | induced c-kit degradation | induced c-kit degradation | induced c-kit degradation | effect on body weights [5, 6]: minimal effect on body weights; growth rate of RERF-LC-AI^IVP human lung tumor cells in nude mice [5, 6]: decreased the growth rate; maximum tolerated dose in nude mice ([5]; mouse, in vivo, ip): ~200 mg/kg body weight
5 | CC(C)c1cc(-c2nnc(S)n2-c2ccc3c(ccn3C)c2)c(O)cc1O [Compound 221, 3-(2,4-dihydroxy-5-isopropyl-phenyl)-4-(N-methyl-indol-5-yl)-5-mercapto-[1,2,4]triazole] | – | – | – | induced c-kit degradation | induced c-kit degradation | induced c-kit degradation | induced c-kit degradation | degradation of c-Kit (Western blot) (c-kit [3]; 100 nM): induced the degradation of c-Kit; degradation of c-Kit (Western blot) (c-kit [3]; 400 nM): induced the degradation of c-Kit
